{"source": "patent US12564609B2", "about": "“Hematopoietic stem cell engraftment with a combination of agents” (The Board of Trustees of the Leland Stanford Junior …, priority 2020, dated 2026)", "tested_on": "mouse Lin−Sca1+c-Kit+CD48− cells", "test": "In vitro HSC culture, cell counting and live/dead viability assay (mouse)", "format": "cell-based", "protocol": "A. Schematic of treatment protocol. C57BL/6 mice were injected with three different doses of AZA (1.25, 2.5 and 5 mg/kg/d) for 3 days. 24 h after last AZA injection BM was analyzed for HSC-depletion and Ki67 intracellular protein expression. B. Overlay histogram of Ki67 intracellular protein expression in LT-HSC (gated from live, Lin^−Sca1^+c-Kit^+CD150^+CD48^− cells) in mice treated with AZA 1.25 mg/kg, 2.5 mg/kg and 5 mg/kg/d for 3 consecutive days. C. Mean fluorescence intensity (MFI) of Ki67 intracellular protein expression in LT-HSC, ST-HSC, MPP2, MPP3/4 and myeloid progenitors (MP). Data were pooled from 2 independent experiments and represent mean±SD (n=7). Statistics were calculated Mann-Whitney test (*P<0.05; **P<0.01; ***P<0.001). […] After 48 h % live/dead cells was assessed by using EarlyTox Live/Dead Assay Kit. E. Proliferation curves of FACS-sorted mouse Lin^−Sca1^+c-Kit^+CD48^− in the presence of indicated concentrations of AZA (left) and cell viability as assessed by % of Calcein AM positive cells after 48 h of cell culture (right). […] Statistics were calculated with Mann-Whitney test (*P<0.05; **P<0.01; ***P<0.001). F. Proliferation curves of FACS-sorted human Lin^−CD34^+CD38^− cells in the presence of indicated concentrations of AZA (left) and cell viability as assessed by % of Calcein AM positive cells after 48 h of cell culture (right). […]", "data": [{"smiles": "Nc1ncn([C@@H]2O[C@H](CO)[C@@H](O)[C@H]2O)c(=O)n1", "note": "[AZA, 5-Azacytidine]", "values": [{"measurement": "number of cells in culture", "setting": "AZA 0.1, 0.5 and 1 μg/ml at baseline and 24 h, 48 h culture with SCF and TPO", "value": "reduced the number of cells in a dose dependent manner"}, {"measurement": "cell viability by Calcein AM", "setting": "AZA concentrations 0.1 μg/ml, 48 h", "value": "significant decrease in cell viability"}]}]}
